Data as given in patent publication US20020073447A1, “Acquired resistance genes and uses thereof” (priority 1996, published 2002).

Tests used:
[1] = test system: PR1 gene; assay: RNA blot analysis of PR1 induction; format: in vivo, Arabidopsis thaliana; conditions: leaves in 0.5 mM INA for twenty-four hours, or SA
Experimental: Transformants of npr1-2 were grown (22° C. in fourteen hours of light) and selected on MS medium agar (Murashige and Skoog, Physiol Plant. 15:473-497, 1962) containing 2% sucrose, 50 μg/mL kanamycin, and 100 μg/mL ampicillin. Kanamycin-resistant transformants which developed true leaves and healthy roots were transplanted to soil. After two weeks of growth in soil at 22° C. in fourteen hours of light per day, leaves were collected from three transformants of each cosmid clone and soaked in 0.5 mM INA solution for twenty-four hours at 22° C. in fourteen hours of light per day. Leaf tissues were then collected and frozen in liquid nitrogen. Total RNA was extracted from these leaf tissues, and an RNA blot was prepared as described by Cao et al. (Plant Cell 6:1583-1592, 1994). The blot was probed with a PR1-specific probe (a PCR product obtained by amplifying genomic Arabidopsis DNA with PR1-specific primers (sense primer 5′ […]3′ (SEQ ID NO: 19); anti-sense primer 5′ […]3′ (SEQ ID NO: 20)).
These variations were likely to be the result of “position-effects,” the effect of the insertion site in the chromosome on the expression of the transgene. Cosmid clones 21A4-4-3-1, 21A4-6-1-1, 21A4-P5-1, and 21A4-2-1 restored the ability of the npr1-2 mutant to respond to INA induction and, therefore, complemented the npr1-2 mutation.
Transformants carrying each cosmid were also tested for SA induction of PR1 expression by RNA blot analysis Examples of SA induction are shown in FIG. 2A.

[2] = test system: Pseudomonas syringae pv maculicola ES4326; assay: Growth of P.s. maculicola ES4326 in SA-/INA-pretreated plants; format: in vivo; conditions: for growth of P.s. maculicola ES4326 lower than the untreated control / growth of P.s. maculicola ES4326: wild-type plants treated two days before infection; for growth of P.s. maculicola ES4326: 0 to 3.0 days after infiltration
[3] = target: T1, NPR1-GFP (Arabidopsis thaliana, UniProt P93002); assay: Subcellular localization of NPR1-GFP by confocal microscopy; format: in vivo; conditions: 35S-NPR1-GFP eleven-day-old seedlings grown on MS with SA or INA
T1 construct: expressed in transfected cells; host or cells: Transgenic Arabidopsis npr1-1 and npr1-2 mutant plants (seedlings; leaf mesophyll and guard cells), CaMV 35S promoter
T1 sequence (P93002 1-593): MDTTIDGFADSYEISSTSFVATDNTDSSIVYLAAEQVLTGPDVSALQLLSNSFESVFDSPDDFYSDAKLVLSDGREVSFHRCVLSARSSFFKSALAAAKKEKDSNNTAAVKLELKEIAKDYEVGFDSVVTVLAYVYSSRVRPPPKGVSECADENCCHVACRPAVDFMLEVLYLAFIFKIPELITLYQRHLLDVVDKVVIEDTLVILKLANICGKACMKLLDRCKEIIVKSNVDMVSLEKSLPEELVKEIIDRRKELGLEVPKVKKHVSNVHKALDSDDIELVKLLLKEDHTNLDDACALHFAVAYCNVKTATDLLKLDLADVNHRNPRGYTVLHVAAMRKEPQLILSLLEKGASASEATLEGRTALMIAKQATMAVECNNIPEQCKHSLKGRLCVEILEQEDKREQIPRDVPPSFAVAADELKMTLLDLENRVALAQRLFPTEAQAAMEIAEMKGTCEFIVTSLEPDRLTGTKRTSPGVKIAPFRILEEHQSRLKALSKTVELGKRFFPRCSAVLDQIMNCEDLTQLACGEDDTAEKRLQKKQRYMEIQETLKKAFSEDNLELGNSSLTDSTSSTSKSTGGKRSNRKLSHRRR
Experimental: To elucidate the induction mechanism and the molecular function of the protein, the subcellular localization of NPR1 was determined by using standard reporter gene fusion construct analysis. The green fluorescent protein (GFP) gene was fused to the carboxyl end of the NPR1 cDNA driven by the constitutive CaMV 35S promoter, and the 35S-NPR1-GFP construct was used to transform npr1 mutants, npr1-1 and npr1-2, according to standard methods.
To examine the subcellular localization of the NPR1 protein, the 35S-NPR1-GFP and 35S-mGFP transgenic lines were grown in MS medium in the presence or absence of the SAR-inducing chemicals SA or INA. Eleven-day-old seedlings were subsequently examined using confocal microscopy to detect localization of NPR1-GFP and mGFP. […] In the 35S-mGFP transformants, green fluorescence was detected in the cytoplasm as well as in the nuclei, and SA and INA treatments had no effect on the localization of the protein. […] In the guard cells, the NPR1 protein was localized in the nuclei even without an SAR induction, an intriguing observation because constitutive activation of defense mechanisms in these cells may be necessary to fend off microbial pathogens from gaining entry into the plant through stomata. […] Consistent with this, the following two potential nuclear localization sequences (NLS's) were found in NPR1: […]

[4] = test system: BGL2-GUS reporter gene; assay: Quantitative GUS assay of BGL2-GUS reporter plants grown on SA or INA; format: in vivo, Arabidopsis thaliana; conditions: 0.5 mM SA, 0.1 mM INA
Experimental: The M2 seeds were germinated on MS medium with the addition of 0.8% agar, 0.5 mg/mL Mes (2-(N-morpholino)ethane-sulfonic acid), pH 5.7, 2% sucrose, 50 μg/mL kanamycin, and 100 μg/mL ampicillin. […] After incubation for fifteen days, each seedling to be assayed was numbered, and a single leaf was then removed from each seedling and put into the corresponding sample well of a ninety-six-well microtiter plate that contained 100 μL of […] (GUS) substrate solution (50 mM Na2HPO4, pH 7.0, 10 mM Na2EDTA, 0.1% Triton X-100, 0.1% sarkosyl, 0.7 μL/mL β-mercaptoethanol, and 0.7 mg/mL 4-methylumbelliferyl β-D-glucuronide). After all the samples were collected, the microtiter plate was placed under vacuum for two minutes to infiltrate the samples and then incubated at 37° C. overnight. Samples were examined for the fluorescent product of GUS activity (4-methylumbellifone) using a long-wavelength UV light. […] This procedure was repeated in the progeny of these putative mutants to ensure that the mutant phenotype was heritable and to identify the homozygous mutants.
To measure accurately the level of GUS activity, a quantitative GUS assay was performed on npr1-1 plants and the wild-type BGL2-GUS plants grown in the presence of either SA or INA, or in the absence of both. In the absence of an inducer, the background level of GUS activity was five-fold lower in the npr1-1 mutant than in the wild-type. […] Moreover, the induction by 0.1 mM INA was forty-eight-fold for the wild-type versus five-fold for npr1-1. Thus, while GUS activity in the SA- or INA-treated npr1-1 plants was somewhat induced, the activity was at most only slightly higher than the background level of the untreated wild-type.

[5] = test system: Arabidopsis thaliana; assay: Plant tolerance to SA or INA treatment (growth, symptoms); format: in vivo; conditions: wild-type and npr1-1 plants; 1 mM SA, 0.65 mM INA
[6] = test system: Pseudomonas syringae pv maculicola ES4326; assay: SA-/INA-induced protection against P.s. maculicola ES4326 infection (disease symptoms); format: in vivo; conditions: 1 mM SA or 0.65 mM INA two days before P.s. maculicola ES4326; for plants with chlorotic lesions: npr1-1 plants; for plants showing slight yellowing: wild-type plants
Experimental: To examine whether the lack of SA- or INA-induced PR gene expression would affect SAR protection against a virulent pathogen infection, fifteen-day-old wild-type and npr1-1 plants were treated with either 1 mM SA or 0.65 mM INA, and two days later were exposed to a P.s. maculicola ES4326 bacterial suspension. […] Chlorotic lesions developed in about ninety percent of the untreated wild-type control plants not pretreated with SA or INA. However, such SA- or INA-induced protection was not observed in npr1-1 mutant plants. Chlorotic lesions were clearly seen in over ninety-percent of untreated and at least eighty-percent of SA- or INA-treated plants. The symptoms on npr1-1 were also more severe than on the wild-type plants.

Structure (SMILES)	induction of PR1 gene expression ([1]; npr1-2 mutant)	induction of PR1 gene expression ([1]; wild-type parental line)	growth of P.s. maculicola ES4326 lower than the untreated control [2] [times]	growth of P.s. maculicola ES4326 [2]	localization of NPR1-GFP upon induction [3]	increase in GUS activity compared to the uninduced plants ([4]; npr1-1 plants)	increase in GUS activity compared to the uninduced plants ([4]; wild-type BGL2-GUS plants)	effect of treatment alone on plants (no infection) [5]	plants with chlorotic lesions [6]	plants showing slight yellowing [6]	decrease in Psm ES4326 growth ([2]; npr1-2 mutant, 0.65 mM INA seventy-two hours prior to infection) [fold]	inhibition of Psm ES4326 growth ([2]; wild-type plants, 0.65 mM INA seventy-two hours prior to infection (OD600=0.001))
O=C(O)c1ccccc1O [SA, salicylic acid]	only a minor induction	high level of PR1 gene induction	1000	about ten	exclusively in the nuclei of both the mesophyll cells and the guard cells	seven	fifty-two	minimal effect	at least eighty	less than ten		
O=C(O)c1cc(Cl)nc(Cl)c1 [INA, 2,6-dichloroisonicotinic acid]	no induction	induction	1000	about ten	exclusively in the nuclei of both the mesophyll cells and the guard cells	five	forty-eight	minimal effect	at least eighty	less than ten	~10	Complete inhibition
